| Compound | flash point [°C] |
| --- | --- |
| CCCCCC#N [HEXANENITRILE] | 47 |
| CCC(C)N (configuration not stated) [sec-Butylamine] | -18.9 |
| CCC(C)CO (configuration not stated) [1-Butanol, 2-methyl-] | 43.0 |
| CCCCCCS [1-Hexanethiol] | 32.5 |
| Cc1ccccn1 [Pyridine, 2-methyl-] | 26.0 |
| CCCCCC(=O)CCCCC [6-Undecanone] | 88.4 |
| CC=C(C)C [2-Butene, 2-methyl-] | -44.9 |
| CC(C)NC(C)C [Diisopropylamine] | -7.0 |
| Oc1ccccc1 [PHENOL] | 80 |
| CCC1CCCC1 [Cyclopentane, ethyl-] | -0.0 |
| Cc1cccc(C)c1 [1,3-Dimethylbenzene] | 25.0 |
| CCCCC(CC)C(=O)O (configuration not stated) [Hexanoicacid, 2-ethyl-] | 110.0 |
| CCCCCCCCCCCCC [Tridecane] | 90.0 |
| CCC(O)CC [3-PENTANOL] | 27 |
| CCC(O)CC [3-Pentanol] | 30.0 |
| CCCCCC(C)CCC (configuration not stated) [Nonane, 4-methyl-] | 44.0 |
| CCCCCCCCCO [1-Nonanol] | 96.0 |
| CCCCCCCCCCCO [1-Undecanol] | 113.0 |
| CCN(CC)CC [Triethylamine] | -11.0 |
| CCC(C)(O)CC [3-Pentanol, 3-methyl-] | 24.0 |

| Compound | flash point [°C] |
| --- | --- |
| COCCOC [1,2-Dimethoxyethane] | -1.6 |
| CCCOC(C)=O [Propyl acetate] | 10.6 |
| NC1CCCC1 [Cyclopentanamine] | 11.5 |
| CCCC(CC)CC [Hexane, 3-ethyl-] | 5 |
| C=CCCCC [1-HEXENE] | -31 |
| C=CCCCCCCCCCCCCC [1-Pentadecene] | 112.0 |
| CCCCCCCCC=O [1-Nonanal] | 63.0 |
| C=CCCCCC [1-Heptene] | -8.0 |
| CCCCCC#N [Hexanenitrile] | 43.0 |
| CCCOCC [Propane, 1-ethoxy-] | -19.9 |
| Cc1ccc(O)c(C)c1 [2,4-Dimethylphenol] | 95.0 |
| CCCCCCCC=O [Octanal] | 51.0 |
| NCCN [1,2-Ethanediamine] | 38 |
| CCCCCC(C)C [Heptane, 2-methyl-] | 6.0 |
| CCCNCCC [Dipropylamine] | 7.5 |
| CN(C)c1ccccc1 [N,N-Dimethylaniline] | 75.0 |
| CCCC(C)CO (configuration not stated) [1-Pentanol, 2-methyl-] | 50.0 |
| CCc1ccc(CC)cc1 [1,4-Diethylbenzene] | 57 |
| NCCCCCCN [1,6-Hexanediamine] | 81.0 |
| CCCCCCC(=O)O [Heptanoic acid] | 115.0 |

| Compound | flash point [°C] |
| --- | --- |
| CCC(C)N (configuration not stated) [sec-BUTYLAMINE] | -28.8 |
| CCCCCCC(C)CC (configuration not stated) [Nonane, 3-methyl-] | 46.0 |
| CCCCCOC(C)=O [Amyl acetate] | 37.0 |
| C=CCCCCCCCC [1-Decene] | 47.0 |
| CCCCCCCS [1-Heptanethiol] | 50.5 |
| CCCCC(C)O (configuration not stated) [2-Hexanol] | 45.0 |
| C=CCCCCCCCCCC [1-DODECENE] | 67 |
| CCc1ccccc1CC [1,2-Diethylbenzene] | 57.2 |
| CCCCCCCC [Octane] | 14.0 |
| CCc1ccccc1O [Phenol, 2-ethyl-] | 85.0 |
| CCOCCOCCO [Ethanol, 2-(2-ethoxyethoxy)-] | 90.0 |
| Cc1ccccc1 [TOLUENE] | 4.0 |
| CCCCS [Butanethiol] | 1.0 |
| CNC [Dimethylamine] | -49.9 |
| Cc1ccc(C)cc1 [1,4-Dimethylbenzene] | 26 |
| Cc1ccc(C)c(C)c1 [1,2,4-TRIMETHYL BENZENE] | 45.5 |
| CCCCC1CCCCC1 [Cyclohexane, butyl-] | 52.5 |
| CCCCC(C)CCCC [Nonane, 5-methyl-] | 39 |

remark: another data set of the same source

| Compound | flash point [°C] |
| --- | --- |
| C[Si](C)(C)O[SiH](O[Si](C)(C)C)O[Si](C)(C)C [Tris(trimethylsiloxy)silane] | 50.00 |
| C[Si](C)(C)N[Si](C)(C)C [Hexamethyldisilazane] | 8.00 |
| CCCCCC#C[Si](C)(C)C [1-Heptynyltrimethylsilane] | 42.00 |
| CCCCCCCC[Si](C)(C)Cl [n-Octyldimethylchlorosilane] | 97.00 |
| CCCCCCCC[Si](Cl)(Cl)Cl [n-Octyltrichlorosilane] | 96.00 |
| C=C[Si](OCC)(OCC)OCC [Vinyltriethoxysilane] | 34.00 |
| C[Si]1(C)O[Si](C)(C)O[Si](C)(C)O1 [Hexamethylcyclotrisiloxane] | 32.00 |
| C#CCO[Si](C)(C)C [Propargyloxytrimethylsilane] | 27.00 |
| CCO[Si](C)(C)OCC [Dimethyldiethoxysilane] | 11.00 |
| C[Si](C)(C)c1ccc(Cl)cc1 [p-Chlorophenyltrimethylsilane] | 49.00 |
| Cl[Si](Cl)(Cl)c1ccccc1 [Phenyltrichlorosilane] | 91.00 |
| Cl[SiH](Cl)C1CCCC1 [Cyclopentyldichlorosilane] | 43.00 |
| C=C(CCl)C[Si](C)(C)C [2-Chloromethyl-3-trimethylsilyl-1-propene] | 43.00 |
| CO[Si](OC)(OC)OC [Tetramethoxysilane] | 21.00 |
| C[Si](C)(C)Cc1ccccc1 [Benzyltrimethylsilane] | 62.00 |
| C=C[Si](C)(CC)CC [Vinyldiethylmethylsilane] | 15.00 |
| C[Si](C)(C)O[Si](C)(C)O[Si](C)(C)C [Octamethyltrisiloxane] | 30.00 |
| CCC[Si](O[SiH](C)C)(O[SiH](C)C)O[SiH](C)C [Propyltris(dimethylsiloxy)silane] | 50.00 |
| C[Si](Cl)(Cl)CCC#N [2-Cyanoethylmethyldichlorosilane] | 60.00 |
| F[Si](F)(F)c1ccccc1 [Phenyl trifluorosilane] | -5.00 |
| CCN(CC)[Si](C)(C)N(CC)CC [Bis(diethylamino)dimethylsilane] | 35.00 |
| C=C[Si](C)(C)C=C [Divinyldimethylsilane] | 8.00 |
| C[Si]1(C)O[Si](C)(C)O[Si](C)(C)O[Si](C)(C)O[Si](C)(C)O1 [Decamethylcyclopentasiloxane] | 77.00 |
| CO[Si](C)(OC)OC [Methyltrimethoxysilane] | 11.00 |
| C=C[Si](OC(C)=O)(OC(C)=O)OC(C)=O [Vinyltriacetoxysilane] | 88.00 |
| C[SiH](C)O[Si](C)(C)C [Pentamethyldisiloxane] | -19.00 |
| CC(C)(C)[Si](C)(C)Cl [t-Butyldimethylchlorosilane] | 22.00 |

| Compound | flash point [°C] |
| --- | --- |
| C[Si](C)(Cl)c1ccccc1 [Phenyldimethylchlorosilane] | 61.00 |
| CCO[Si](CCCS)(OCC)OCC [[3-(mercapto)propyl]triethoxysilane] | 87.78 |
| CCC[Si](OC)(OC)OC [n-Propyltrimethoxysilane] | 25.00 |
| CCC[Si](C)(Cl)Cl [n-Propylmethyldichlorosilane] | 27.00 |
| CO[Si](OC)(c1ccccc1)c1ccccc1 [Diphenyldimethoxysilane] | 121.00 |
| C[Si](C)(Cl)CBr [Bromomethyldimethylchlorosilane] | 41.00 |
| C[Si](C)(C)Br [Trimethyl bromosilane] | -3.00 |
| C[Si](C)(C)CCOCCl [[2-(chloromethoxy)ethyl]trimethylsilane] | 46.00 |
| C[Si](C)(C)C1C=CC=C1 [Cyclopentadienyltrimethylsilane] | 29.00 |
| C=CCO[Si](C)(C)C [Allyloxytrimethylsilane] | 0.00 |
| C[Si](C)(C)F [Trimethylfluorosilane] | -35.00 |
| CCO[Si](C)(OCC)OCC [Methyltriethoxysilane] | 24.00 |
| C[SiH](C)Cl [Dimethylchlorosilane] | -28.00 |
| CO[Si](CCCCl)(OC)OC [3-Chloropropyltrimethoxysilane] | 75.00 |
| C=CC=CO[Si](C)(C)C [1-(Trimethylsiloxy)-1,3-butadiene] | 25.00 |
| C[SiH](C)c1c(F)c(F)c(F)c(F)c1F [Dimethyl(pentafluorophenyl) silane] | 40.00 |
| C[Si](Cl)(c1ccccc1)c1ccccc1 [Methyldiphenylchlorosilane] | 138.00 |
| CC(C)(C)[Si](C)(C)O [t-Butyldimethylsilanol] | 45.00 |
| CCCO[Si](OCCC)(OCCC)OCCC [Tetra-n-propoxysilane] | 95.00 |
| CCO[Si](CCC#N)(OCC)OCC [2-Cyanoethyltriethoxysilane] | 86.00 |
| C[SiH](C)O[SiH](C)C [1,1,3,3-Tetramethyldisiloxane] | -22.00 |
| [SiH3]c1ccccc1 [Phenylsilane] | 8.00 |
| CC[Si](C)(C)Cl [ETHYLDIMETHYLCHLOROSILANE] | -4.00 |
| C[Si](C)(Cl)Cl [Dimethyldichlorosilane] | -16.00 |
| C[Si](C)(Cl)CCC(F)(F)F [Chlorodimethyl(3,3,3-trifluoropropyl) silane] | 20.00 |
| C[Si](C)(C)[Si](C)(C)C [Hexamethyldisilane] | -1.00 |
| CCCC[Si](Cl)(Cl)Cl [n-Butyltrichlorosilane] | 54.00 |

Source: a flash point compilation (Sun et al. 2020)
